Assay results: patent US20230050965A1, “SSTR5 ANTAGONISTS” (Kallyope, Inc., priority 2019, published 2023)

Each molecule was assayed against T1, human SSTR5 (Homo sapiens, UniProt P35346) (assay: Inositol phosphate (IP1) accumulation assay, antagonist mode). Conditions: CHO-K1 cells stably co-expressing human SSTR5 with Gqi5; pre-incubation with antagonist, then SST28 agonist; IP1 HTRF readout.
T1 construct: expressed in transfected cells
Assay type: cell-based
Text: Inositol Phosphate Accumulation Assay
CHO-K1 cells stably co-expressing human SSTR5 with Gqi5 were developed using Jump-In technology from Thermo-Fisher. Gqi5 is the mouse G alpha q protein, that was modified to interact with Gi-coupled GPCRs as described previously (Coward, P.; Chan, S. D.; Wada, H. G.; Humphries, G. M.; Conklin, B. R. Chimeric G proteins Allow a High-Throughput Signaling Assay of Gi-Coupled Receptors. Anal Biochem. 1999, 270(2), 242-248).
Co-expression of Gqi5 with SSTR5 allowed monitoring of SSTR5 activity by following IP1 accumulation. The assay was performed in a 384-well plate format using the IP1 assay kit from Cis-Bio in an antagonist mode, i.e., pre-incubation with antagonist following by receptor activation by agonist at a concentration generating 90% of full activation. Frozen cells expressing human SSTR5 were thawed, washed, and then plated in DMEM supplemented with 10% FBS and non-essential amino acids. 40 μL of 2.5×10^5 cells/mL were plated on a Poly D-Lysine coated 384-well white plate. The cells were then incubated for 16 hr. at 37° C./5% CO2. After 16 hour the medium was removed, and 10 μL of stimulation buffer was added to the cells. Test compounds were dissolved in DMSO at concentrations 2000-fold that of the final assay concentrations. 7.5 nL compound solutions were transferred to the cell plates using a Labcyte Echo® acoustic liquid handler. The plates were then incubated for 15 minutes at 37° C./5% CO2. After the first incubation, 5 μL of 30 nM SST28 were added to the cells, and the cells were incubated for 90 minutes at 37° C./5% CO2. 5 μL of detection buffer (prepared as described in the IP-1 kit) was added to each well, and the plates were incubated at RT for 1 hour.
TR-FRET was measured using a ClarioSTAR plate reader, calculating the ratio between emissions at 665 nm and 620 nm (HTRF ratio). The HTRF ratio for positive (Max) and negative (Min) controls were used to normalize HTRF data and generate values for % inhibition. IC50 and maximal inhibition values were determined using a standard 4-parameter fit.

T1 sequence (P35346 whole entry): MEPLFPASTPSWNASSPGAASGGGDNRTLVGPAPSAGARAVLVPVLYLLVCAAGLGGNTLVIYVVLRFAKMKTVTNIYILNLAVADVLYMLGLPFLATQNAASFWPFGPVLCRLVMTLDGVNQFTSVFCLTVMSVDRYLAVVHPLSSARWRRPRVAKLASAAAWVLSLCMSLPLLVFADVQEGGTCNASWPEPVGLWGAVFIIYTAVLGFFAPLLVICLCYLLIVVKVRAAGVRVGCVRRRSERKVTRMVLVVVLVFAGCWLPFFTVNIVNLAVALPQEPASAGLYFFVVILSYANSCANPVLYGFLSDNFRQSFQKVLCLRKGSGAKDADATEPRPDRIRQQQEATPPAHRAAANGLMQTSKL

Row | Structure (SMILES) | IC50 [nM]
1 | CCOc1cc(C(=O)OC)c(C2CC2)cc1CN1CCC2(CC1)CC(=O)N(c1ccc(CCCCNC(N)=O)cc1)C2 [Compound 20, methyl 2-cyclopropyl-5-ethoxy-4-((3-oxo-2-(4-(4-ureidobutyl)phenyl)-2,8-diazaspiro[4.5]decan-8-yl)methyl)benzoate] | 1000 to 5000
2 | CCOc1cc(C(=O)OC)c(C2CC2)cc1CN1CCC2(CC1)CC(=O)N(c1ccc(CCCCNC=O)cc1)C2 [Compound 17, methyl 2-cyclopropyl-5-ethoxy-4-((2-(4-(4-formamidobutyl)phenyl)-3-oxo-2,8-diazaspiro[4.5]decan-8-yl)methyl)benzoate] | 100 to 1000
3 | CCOc1cc(-c2ccc(F)cc2)c(C2CC2)cc1CN1CCC2(CC1)CN([C@H]1CC[C@@H](P(=O)(O)O)CC1)C(=O)O2 (single isomer, unassigned) [Compound 33, ((cis)-4-(8-((2-cyclopropyl-5-ethoxy-4'-fluoro-[1,1'-biphenyl]-4-yl)methyl)-2-oxo-1-oxa-3,8-diazaspiro[4.5]decan-3-yl)cyclohexyl)phosphonic acid] | ≤ 100
4 | CCOc1cc(-c2ccc(F)cc2)c(C2CC2)cc1CN1CCC2(CC1)CC(=O)N(c1ccc(P(=O)(O)O)cc1)C2 [Compound 29, (4-(8-((2-cyclopropyl-5-ethoxy-4′-fluoro-[1,1′-biphenyl]-4-yl)methyl)-3-oxo-2,8-diazaspiro[4.5]decan-2-yl)phenyl)phosphonic acid] | ≤ 100
5 | CCOc1cc(-c2ccc(F)cc2)c(C2CC2)cc1CN1CCN(C(=O)Cc2ccc(P(=O)(O)OCC)cc2)CC1 [Compound 40, ethyl hydrogen (4-(2-(4-((2-cyclopropyl-5-ethoxy-4′-fluoro-[1,1′-biphenyl]-4-yl)methyl)piperazin-1-yl)-2-oxoethyl)phenyl)phosphonate] | ≤ 100
6 | CCOc1cc(-c2ccc(F)cc2)c(C2CC2)cc1CN1CCN(C(=O)Cc2ccc(P(=O)(O)O)cc2)CC1 [Compound 41, (4-(2-(4-((2-cyclopropyl-5-ethoxy-4′-fluoro-[1,1′-biphenyl]-4-yl)methyl)piperazin-1-yl)-2-oxoethyl)phenyl)phosphonic acid] | ≤ 100
7 | CCOc1cc(-c2ccc(F)cc2)c(C2CC2)cc1CN1CCC2(CC1)CN(c1ccc(P(=O)(O)OCC)cc1)C(=O)N2 [Compound 25, ethyl hydrogen (4-(8-((2-cyclopropyl-5-ethoxy-4′-fluoro-[1,1′-biphenyl]-4-yl)methyl)-2-oxo-1,3,8-triazaspiro[4.5]decan-3-yl)phenyl)phosphonate] | ≤ 100
8 | CCOc1cc(-c2ccc(F)cc2)c(C2CC2)cc1CN1CCC2(CC1)CC(=O)N(c1ccc(P(C)(=O)O)cc1)C2 [Compound 7, (4-(8-((2-cyclopropyl-5-ethoxy-4′-fluoro-[1,1′-biphenyl]-4-yl)methyl)-3-oxo-2,8-diazaspiro[4.5]decan-2-yl)phenyl)(methyl)phosphinic acid] | ≤ 100
9 | CCOc1cc(C(=O)OC)c(C2CC2)cc1CN1CCC2(CC1)CC(=O)N(c1ccc(CCCCNC(=O)CO)cc1)C2 [Compound 19, methyl 2-cyclopropyl-5-ethoxy-4-((2-(4-(4-(2-hydroxyacetamido)butyl)phenyl)-3-oxo-2,8-diazaspiro[4.5]decan-8-yl)methyl)benzoate] | 1000 to 5000
10 | CCOc1cc(-c2ccc(F)cc2)c(C2CC2)cc1CN1CCN(S(=O)(=O)Cc2ccc(P(=O)(O)OCC)cc2)CC1 [Compound 39, ethyl hydrogen (4-(((4-((2-cyclopropyl-5-ethoxy-4′-fluoro-[1,1′-biphenyl]-4-yl)methyl)piperazin-1-yl)sulfonyl)methyl)phenyl)phosphonate] | ≤ 100
11 | CCOc1cc(C(=O)OC(C)C)c(C2CC2)cc1CN1CCC2(CC1)CC(=O)N(c1ccc(P(=O)(O)O)cc1)C2 [Compound 24, (4-(8-(5-cyclopropyl-2-ethoxy-4-(isopropoxycarbonyl)benzyl)-3-oxo-2,8-diazaspiro[4.5]decan-2-yl)phenyl)phosphonic acid] | 100 to 1000
12 | CCOc1nc(-c2ccc(F)cc2)c(C2CC2)cc1CN1CCC2(CC1)CN(c1ccc(P(C)(=O)O)cc1)C(=O)O2 [Compound 4, (4-(8-((5-cyclopropyl-2-ethoxy-6-(4-fluorophenyl)pyridin-3-yl)methyl)-2-oxo-1-oxa-3,8-diazaspiro[4.5]decan-3-yl)phenyl)(methyl)phosphinic acid] | ≤ 100
13 | CCOc1nc(-c2ccc(F)cc2)c(C2CC2)cc1CN1CCC2(CC1)CN(c1ccc(P(=O)(O)O)cc1)C(=O)O2 [Compound 10, (4-(8-((5-cyclopropyl-2-ethoxy-6-(4-fluorophenyl)pyridin-3-yl)methyl)-2-oxo-1-oxa-3,8-diazaspiro[4.5]decan-3-yl)phenyl)phosphonic acid] | ≤ 100
14 | CCOc1cc(-c2ccc(F)cc2)c(C2CC2)cc1CN1CCC2(CC1)CN([C@H]1CC[C@H](P(=O)(O)O)CC1)C(=O)O2 (single isomer, unassigned) [Compound 34, ((trans)-4-(8-((2-cyclopropyl-5-ethoxy-4'-fluoro-[1,1'-biphenyl]-4-yl)methyl)-2-oxo-1-oxa-3,8-diazaspiro[4.5]decan-3-yl)cyclohexyl)phosphonic acid] | ≤ 100
15 | CCOc1cc(-c2ccc(F)cc2)c(C(C)C)cc1CN1CCC2(CC1)CN(c1ccc(P(=O)(O)O)cc1)C(=O)O2 [Compound 37, (4-(8-((5-ethoxy-4'-fluoro-2-isopropyl-[1,1'-biphenyl]-4-yl)methyl)-2-oxo-1-oxa-3,8-diazaspiro[4.5]decan-3-yl)phenyl)phosphonic acid] | ≤ 100
16 | CCOc1cc(-c2ccc(F)cc2)c(C2CC2)cc1CN1CCC2(CC1)CN(C13CC(CP(=O)(O)O)(C1)C3)C(=O)O2 [Compound 12, ((3-(8-((2-cyclopropyl-5-ethoxy-4′-fluoro-[1,1′-biphenyl]-4-yl)methyl)-2-oxo-1-oxa-3,8-diazaspiro[4.5]decan-3-yl)bicyclo[1.1.1]pentan-1-yl)methyl)phosphonic acid] | ≤ 100
17 | CCOc1cc(-c2ccc(F)cc2)c(C2CC2)cc1CN1CCC2(CC1)CN(c1ccc(P(=O)(O)O)nc1)C(=O)O2 [Compound 6, (5-(8-((2-cyclopropyl-5-ethoxy-4′-fluoro-[1,1′-biphenyl]-4-yl)methyl)-2-oxo-1-oxa-3,8-diazaspiro[4.5]decan-3-yl)pyridin-2-yl)phosphonic acid] | ≤ 100
18 | CCOc1cc(-c2ccc(F)cc2)c(C2CC2)cc1CN1CCC2(CC1)CN(c1ccc(P(=O)(O)O)cc1)C(=O)N2 [Compound 22, (4-(8-((2-cyclopropyl-5-ethoxy-4′-fluoro-[1,1′-biphenyl]-4-yl)methyl)-2-oxo-1,3,8-triazaspiro[4.5]decan-3-yl)phenyl)phosphonic acid] | ≤ 100
19 | CCOc1nc(-c2ccc(F)cc2)c(C2CC2)cc1CN1CCC2(CC1)CN(C13CC(CP(=O)(O)O)(C1)C3)C(=O)O2 [Compound 11, ((3-(8-((5-cyclopropyl-2-ethoxy-6-(4-fluorophenyl)pyridin-3-yl)methyl)-2-oxo-1-oxa-3,8-diazaspiro[4.5]decan-3-yl)bicyclo[1.1.1]pentan-1-yl)methyl)phosphonic acid] | ≤ 100
20 | CCOc1cc(C(=O)OC)c(C2CC2)cc1CN1CCC2(CC1)CC(=O)N(c1ccc(P(=O)(O)O)cc1)C2 [Compound 23, (4-(8-(5-cyclopropyl-2-ethoxy-4-(methoxycarbonyl)benzyl)-3-oxo-2,8-diazaspiro[4.5]decan-2-yl)phenyl)phosphonic acid] | > 5000
21 | CCOc1cc(-c2nc(C)no2)c(C2CC2)cc1CN1CCC2(CC1)CN(c1ccc(P(=O)(O)O)cc1)C(=O)O2 [Compound 26, (4-(8-(5-cyclopropyl-2-ethoxy-4-(3-methyl-1,2,4-oxadiazol-5-yl)benzyl)-2-oxo-1-oxa-3,8-diazaspiro[4.5]decan-3-yl)phenyl)phosphonic acid] | ≤ 100
22 | CCOc1cc(-c2ccc(F)cc2)c(C2CC2)cc1CN1CCC2(CC1)CN(c1ccc(CP(=O)(O)O)cc1)C(=O)O2 [Compound 30, (4-(8-((2-cyclopropyl-5-ethoxy-4'-fluoro-[1,1'-biphenyl]-4-yl)methyl)-2-oxo-1-oxa-3,8-diazaspiro[4.5]decan-3-yl)benzyl)phosphonic acid] | ≤ 100
23 | CCOc1cc(-c2ccc(F)cc2)c(C2CCC2)cc1CN1CCC2(CC1)CN(c1ccc(P(=O)(O)O)cc1)C(=O)O2 [Compound 36, (4-(8-((2-cyclobutyl-5-ethoxy-4'-fluoro-[1,1'-biphenyl]-4-yl)methyl)-2-oxo-1-oxa-3,8-diazaspiro[4.5]decan-3-yl)phenyl)phosphonic acid] | ≤ 100
24 | CCOc1cc(-c2nc(C)no2)c(C2CC2)cc1CN1CCC2(CC1)CN(c1ccc(P(=O)(O)O)cc1)C(=O)N2 [Compound 27, (4-(8-(5-cyclopropyl-2-ethoxy-4-(3-methyl-1,2,4-oxadiazol-5-yl)benzyl)-2-oxo-1,3,8-triazaspiro[4.5]decan-3-yl)phenyl)phosphonic acid] | ≤ 100
